Results from US10202604B2, “Methods of using microRNA-141” (Stemirna Therapeutics Co., Ltd., priority 2016, dated 2019).

Experiments:
CD44+ Du145 cells = assay: In vivo tumor regeneration assay; parameters: species or system NOD/SCID mice; conditions: enforced miR-141 expression; 100,000 cells per injection
Method: (§1) Average % of CD44^+ cells (as determined by flow analysis; n=3-5) is indicated for each cell type (UD, undetectable). […] Purified CD44^+ Du145 cells were transfected with NC or miR-141 oligos (30 nM, 48 h) and then plated for clonal (1D & 1E) and sphere (1F) assays. Bars represent mean±SD. *, P<0.05; **, P<0.01. […] Shown are tumor images, cell numbers injected (100,000 cells per injection for all models), site of injection (s.c, subcutaneously) and days (d) when tumors were harvested. Tumor weight and incidences with corresponding P values are also indicated. ns, not significant. […] Purified CD44^+ HPCa202 cells were infected with Lenti-ctl or Lenti-141 (MOI 10, 72 h) and plated for clonal assay (1K) or sphere assays in Matrigel (1L & 1M). For 1st generation (1°) sphere assays, 1,000 cells per well were plated in triplicate for each group in 12-well plate and results scored in 11 days. For 2nd generation (2°), the 1° spheres were harvested, digested with Collagenase and Trypsin into single cells, 1,000 cells/well were plated, and results scored in 10 days. Quantification of the colonies was plotted (1 L; **P<0.01).
(§2) Du145, LNCaP, PC3, PPC-1, VCaP cells were obtained from […] and cultured in RPMI-1640 (Life Technologies, Carlsbad, Calif.) plus 7% fetal bovine serum (FBS) with the exception of VCaP, which were cultured in Dulbecco's Modified Eagles Medium (DMEM, Life Technologies) supplemented with 15% fetal bovine serum. Human xenograft prostate tumors, LAPC9 [bone metastasis; positive for androgen receptor (AR) and prostate-specific antigen (PSA)], LAPC4 (lymph node metastasis; AR+ and PSA+), and Du145 ([…]; AR− and PSA−) were maintained in NOD/SCID mice. These cell and xenograft lines, which have been routinely utilized (13, 14, 18, 20, 21, 23, 25, 33) and authenticated by institutional CCSG Cell Line Characterization Core using short tandem repeat (STR) analysis and checked to be free of mycoplasma contamination using the Agilent (Santa Clara, Calif.) MycoSensor QPCR Assay Kit (cat.#302107). NOD/SCID mice were produced mostly from breeding colonies with occasional purchases from the Jackson Laboratories and maintained in standard conditions according to the Institutional Guidelines. All animal experiments were approved by Institutional Animal Care and Use Committee.
(§3) As the CD44^+ prostate cancer cells are prominently devoid of miR-141, its expression in CD44^+ prostate cancer cells was restored and then cancer stem cell assays including stringent clonal (holoclone) and single cell-derived sphere-formation assays (13, 14, 23, 25, 33) were performed. […]

CD44+ LAPC9 cells = assay: In vivo tumor regeneration assay; parameters: species or system NOD/SCID mice; conditions: enforced miR-141 expression; 100,000 cells per injection
Method: as §1, §2, §3

[1] = tested on: PPC-1 bulk cells or CD44+ DU145 cells; assay: EdU incorporation flow cytometry; format: cell-based, human; conditions: miR-141-overexpressing cells; 30 nM oligos 48 h, 10 μM EdU 2.5 h
Method: EdU (5-ethynyl-2′-deoxyuridine) is a nucleoside analog to thymidine and incorporated into DNA during active DNA synthesis. EdU incorporation assays were performed using Click-iT EdU Flow Cytometer Assays kit (C10418, Invitrogen) per manufacturer's instructions. Briefly, PPC-1 bulk cells or CD44^+ DU145 cells transfected with negative control or miR-141 oligos (30 nM) for 48 h were pulsed with 10 μM EdU for 2.5 h and harvested. After fixation and permeabilization, cells were processed for EdU immunostaining and also labeled with Pacific Blue azide (1:200) and finally analyzed on a flow cytometer.

human CD44 3'-UTR = assay: CD44 3'-UTR luciferase reporter assay; format: cell-based; conditions: Du145 cells
Method: FIGS. 3A-3J show partial suppression of epithelial to mesenchymal transition by miR-141 and CD44 as a direct target of miR-141. FIGS. 3A-3B show qPCR analysis of epithelial to mesenchymal transition markers in bulk (FIG. 3A) or CD44^+ (FIG. 3B) Du145 cells transfected with the miR-141 oligos (30 nM; 48 h). Results were presented as the relative expression levels over the cells transfected with the NC oligos. […] GAPDH was used as control and the relative protein levels after normalizing to GAPDH and NC controls were indicated below each lane. […] Shown below is the actual sequence in the region with the mutated miR-141 binding sequence indicated in grey (below). […] Shown are representative images. […] Du145 cells were co-transfected with NC or miR-141 oligos (30 nM) together with pBabe empty vector or pBabe-CD44 vector. After 48 h, cells were harvested for invasion assays. […]
The human CD44 3′-UTR was amplified from Du145 genomic DNA using primers 5′-[…]-3′ (SEQ ID NO: 2) and 5′-[…]-3′ (SEQ ID NO: 3), as previously described (13). […] The luciferase activities were detected using Duo-luciferase reporter assay system (Promega). Human RAC1, CDC42, CDC42EP3, and ARPC5 3′-UTR luciferase reporter constructs were obtained from SwitchGear Genomics (Menlo Park, Calif.) and luciferase activities were measured per the manufacturer's instructions using LightSwitch luciferase assay kit.

## miR-141: miR-141 mirVana mimics (Life Technologies); microRNA-141 oligonucleotide may have SEQ ID NO: 1; in some experiments over-expressed by lentiviral vectors (UAACACUGUCUGGUAAAGAUGG; listed as RNA, further chemistry not given here) [miR-141 mirVana mimics (Life Technologies); in some experiments over-expressed by lentiviral vectors]
CD44+ Du145 cells
  tumor growth and/or tumor incidence: significantly suppressed tumor growth and/or reduced tumor incidence
CD44+ LAPC9 cells
  tumor growth and/or tumor incidence: significantly suppressed tumor growth and/or reduced tumor incidence
[1]
  EdU incorporation: reduced
Human CD44 3'-UTR
  luciferase activity, CD44 3'-UTR with mutated miR-141 binding sequence: abrogated the suppressive effect of miR-141
Human CD44 3'-UTR; vs negative control oligos
  luciferase activity, wild-type CD44 3'-UTR reporter: lower
